What was measured:
[1] = Survival of mice on acute cooling; assay type: in vivo
Protocol: The activity of the compound according to the present invention was studied in experiments on animals. The effectivemess of the compound according to the present invention was studied for resistance against an acute cold effect in comparison with conventional preparations such as butanedioic acid mono[(2-dimethylamino)ethyl ester] and sodium succinate.
The experiments were carried out on male mice (tetrahybdrids) with a body mass of 18-20 g which were placed into a cold chamber at a temperature of -15t to -17° C. in separate plastic cages slightly limiting their activity. […] The preparations were administered intraperiotoneally 1 hour before the cold effect the control animals were administered with a physiological solution.

[2] = tested on: Glucose-6-phosphatedehydrogenase; assay: Activity of glucose-6-phosphatedehydrogenase in myocardium upon low-temperature treatment; assay type: in vivo, mice; conditions: 2.5 hours at -14° C.; 80 mg/kg (invention) or 64 mg/kg (ester); control 57.3 ± 1.3
Protocol: (§2) The preparations were administered one hour before the standard low-temperature treatment (-14° C.) in doses of 80 mg/kg of the compound according to the present invention and 64 mg/kg of the prior art compound-butanedioic acid mono[(2-dimethylamino)-ethyl ester].

[3] = Stresso-protective activity, motion stress in slowly rotating drum for 48 hours; assay type: in vivo, rats; conditions: 48 h motion stress
Protocol: In evaluation of the stresso-protective activity of the compound according to the present invention as a model use was made of a procedure of depriving rats of sleep, meals and water in a slowly rotating drum (at the speed of 0.2 km/h).
The experiments were carried out on 42 nondescript male rats. In parallel experiments the antistress activity of butanedioic acid mono[(2-dimethylamino)ethyl ester] was studied; as the reference prepartion use was made of the prior art tranquilizer--diazepam which was used in the experiments for this very indication.
4 groups of animals were tested in parallel. Groups I and II were placed for 48 hours into a slowly rotating drum, groups III and IV were under normal conditions and were deprived only of meals and water. The compound according to the present invention and butanedioic acid mono[(2-dimethylamino)ethyl ester] were administered intraperitoneally in the dose of 10 mg/kg four times (2 times a day) in the volume of 2.5 ml/kg under the conditions of motion stress (Group I of the animals) and under normal conditions (Group III of animals). The control animals--Group II (active control) and Group IV (passive control) were given a physiological solution. The efficiency of the compound according to the present invention, of butanedioic acid mono[(2-dimethylamino)ethyl ester] and of diazepam was estimated on the basis of a set of characteristics showing the functional activity of the central nervous system, physical fitness and development of basic symptoms of the stress-syndrome.
The residence of control rats in a slowly-rotating drum over 48 hours results in a noticeable deterioration of all the studied characteristics, especially those of higher nervous activity (learning) and development of stress-syndrome. The state of control animals was characterized by lowering of the overall behavioural activity as determined by the "open-field" test (37±15%) with reference to the passive control level, by a reduction in the speed of development of a conventional avoiding response in an aqueous labyrinth (58±15%), by an increase in the number of mistakes during the teaching time (175±25%), lowering of the ultimate physical endurance as determined by the swimming-with-load test (the load is equal to 10% by mass of the body (70±17%), adrenal hypertrophy (146±16%), thymus atrophy (49±9%) and formation of ulcers on the stomach mucous membrane (5.25±1.0%).

[4] = tested on: Succinatedehydrogenase; assay: Activity of succinatedehydrogenase in myocardium upon low-temperature treatment; assay type: in vivo, mice; conditions: 2.5 hours at -14° C.; 80 mg/kg (invention) or 64 mg/kg (ester); control 72.3 ± 1.6
Protocol: as §2

[5] = Maximum duration of mice lifespan upon testing cold treatment (Le Blanc adaptation procedure); assay type: in vivo
Protocol: (§1) To elucidate the effect of the compound according to the present invention on the adaptation phenomenon, experiments on male mice with a body mass of 18-20 g were carried out in conformity with the Le Blanc procedure according to which the mice were placed into a cold chamber (at -17° C.) for 10 minutes ever hour over the period of 9-10 hours. After one day the maximum lifespan of the mice at -17° C. was assessed along with the content of glucose in blood and of glycogen in organs upon a predetermined cold treatment (2.5 hours a -14° C.). The compound according to the present invention and butanedioic acid mono[(2-dimethylamino)-ethyl ester] (in doses of 80 and 64 mg/kg respectively) were introduced immediately after a series of short-time cold effects. In a number of experiments the compound according to the present invention was administered 1 hour prior to the testing (2.5 h) cold effect.

[6] = Biochemical substrates in mice upon preset (2.5 hours) low-temperature treatment; conditions: 2.5 hours at -14° C.
Protocol: as §2

[7] = tested on: Pyruvatedehydrogenase; assay: Activity of pyruvatedehydrogenase in myocardium upon low-temperature treatment; assay type: in vivo, mice; conditions: 2.5 hours at -14° C.; 80 mg/kg (invention) or 64 mg/kg (ester); control 56.6 ± 1.1
Protocol: as §2

[8] = tested on: Isocitratedehydrogenase; assay: Activity of isocitratedehydrogenase in myocardium upon low-temperature treatment; assay type: in vivo, mice; conditions: 2.5 hours at -14° C.; 80 mg/kg (invention) or 64 mg/kg (ester); control 49.5 ± 1.2
Protocol: as §2

[9] = tested on: Glutamatedehydrogenase; assay: Activity of glutamatedehydrogenase in myocardium upon low-temperature treatment; assay type: in vivo, mice; conditions: 2.5 hours at -14° C.; 80 mg/kg (invention) or 64 mg/kg (ester); control 68.8 ± 1.5
Protocol: as §2

[10] = tested on: NAD-Ph--H2 --dehydrogenase; assay: Activity of NAD-Ph-H2-dehydrogenase in myocardium upon low-temperature treatment; assay type: in vivo, mice; conditions: 2.5 hours at -14° C.; 80 mg/kg (invention) or 64 mg/kg (ester); control 72.1 ± 1.4
Protocol: as §2

[11] = Blood glucose and organ glycogen upon predetermined (2.5 h) cold treatment (adaptation experiment); assay type: in vivo, mice; conditions: 2.5 h at -14° C.; for Glycogen, heart: control 1.7 ± 0.2; for Glycogen, liver: control 6.7 ± 0.4; for Blood glucose: control 37 ± 6
Protocol: as §1

[12] = tested on: NADH2 --dehydrogenase; assay: Activity of NADH2-dehydrogenase in myocardium upon low-temperature treatment; assay type: in vivo, mice; conditions: 2.5 hours at -14° C.; 80 mg/kg (invention) or 64 mg/kg (ester); control 69.8 ± 1.5
Protocol: as §2

[13] = adaptation + preparation 1 hour before the testing effect
[14] = adaptation + preparation immediately after adaptation, 80 mg/kg (invention) or 64 mg/kg (ester)

## CN(C)CCOC(=O)CCC(=O)O [Compound of this invention, butanedioic acid mono[(2-dimethylamino)ethyl ester]succinate]
[1]; 1 hour of cold at -15 to -17° C., i.p. 1 hour before, 80 mg/kg (invention), 64 mg/kg (ester), 17 mg/kg (sodium succinate)
  Survival, %, 1 hour: 100%
[1]; 2 hours of cold at -15 to -17° C., i.p. 1 hour before, 80 mg/kg (invention), 64 mg/kg (ester), 17 mg/kg (sodium succinate)
  Survival, %, 2 hours: 100%
[1]; 3 hours of cold at -15 to -17° C., i.p. 1 hour before, 80 mg/kg (invention), 64 mg/kg (ester), 17 mg/kg (sodium succinate)
  Survival, %, 3 hours: 100%
[1]; 4 hours of cold at -15 to -17° C., i.p. 1 hour before, 80 mg/kg (invention), 64 mg/kg (ester), 17 mg/kg (sodium succinate)
  Survival, %, 4 hours: 90%
[1]; 5 hours of cold at -15 to -17° C., i.p. 1 hour before, 80 mg/kg (invention), 64 mg/kg (ester), 17 mg/kg (sodium succinate)
  Survival, %, 5 hours: 70%
[1]; 6 hours of cold at -15 to -17° C., i.p. 1 hour before, 80 mg/kg (invention), 64 mg/kg (ester), 17 mg/kg (sodium succinate)
  Survival, %, 6 hours: 70%
[1]; doses above 300 mg/kg
  protective effect on survival at high dose: less pronounced
[2]
  Activity of glucose-6-phosphatedehydrogenase in myocardium: 67.4 ± 1.5 relative units
[3]
  formation of ulcers on the stomach mucous membrane: 4.8±1.5%
[3]; in words
  general behavioural activity compared with diazepam: substantially higher general behavioural activity
[3]; 10 mg/kg i.p. four times (invention, ester), control 0.95 ± 0.18, listed as compound of the present invention, 10 mg/kg
  Weight coefficient of thymus: 1.25 g/kg of the initial body mass
[3]; 10 mg/kg i.p. four times (invention, ester), control 1.246 ± 0.028, listed as compound of the present invention, 10 mg/kg
  Weight coefficient of adrenal glands: 1.83 g/kg of the initial body mass
[3]; 10 mg/kg i.p. four times (invention, ester), control 4.75 ± 0.5, listed as compound of the present invention, 10 mg/kg
  Number of attempts till reaching the learning criterion (water labyrinth): 2.75
[3]; 10 mg/kg i.p. four times (invention, ester), control 5.25 ± 1.0, listed as compound of the present invention, 10 mg/kg
  Number of ulcers on the stomach mucous membrane: 2.5
[3]; 10 mg/kg i.p. four times (invention, ester), control 244 ± 26, listed as compound of the present invention, 10 mg/kg
  Duration of swimming: 499 s
[3]; open-field test, stressed control 37±15% of passive control
  total behavioural activity: 85±10%
[3]; stressed control 58±15% (avoiding response, aqueous labyrinth)
  higher nervous activity (protection): 100±9%
[3]; swimming-with-load test, stressed control 70±17%
  physical endurance: 143±28%
[4]
  Activity of succinatedehydrogenase in myocardium: 90.2 ± 1.8 relative units
[5]; no adaptation, intact animals 3.4 ± 0.4
  Lifespan in hours (at -17° C.), preparation without adaptation: 7.8 ± 0.3 h
[5]; with preliminary adaptation, 80 mg/kg (invention) or 64 mg/kg (ester), adaptation alone 6.0 ± 0.3, listed as compound of the present invention
  Lifespan in hours (at -17° C.), preliminary adaptation + preparation: 10.3 ± 0.6 h
[6]; 1 hour after 80 mg/kg (invention) or 64 mg/kg (ester), control 8.1 ± 0.6, intact 35.2 ± 4.5
  Liver glycogen: 9.8 ± 1.2 mg/kg
[6]; 1 hour after 80 mg/kg (invention) or 64 mg/kg (ester), control 42 ± 4, intact 79 ± 3
  Blood glucose: 80 ± 4 mg. %
[6]; myocardium, 1 hour after 80 mg/kg (invention) or 64 mg/kg (ester), control 1.2 ± 0.08, intact 3.7 ± 0.3
  Creatine phosphate: 2.3 ± 0.1 μm/g
[6]; myocardium, 1 hour after 80 mg/kg, control 0.45 ± 0.01, intact 0.51 ± 0.03
  Adenosine monophosphate: 0.32 ± 0.02 μm/g
[6]; myocardium, 1 hour after 80 mg/kg, control 0.49 ± 0.02, intact 0.78 ± 0.03
  Adenosine diphosphate: 0.86 ± 0.04 μm/g
[6]; myocardium, 1 hour after 80 mg/kg, control 1.5 ± 0.1, intact 2.2 ± 0.3
  Adenosine triphosphoric acid: 1.9 ± 0.2 μm/g
[7]
  Activity of pyruvatedehydrogenase in myocardium: 68.9 ± 1.3 relative units
[8]
  Activity of isocitratedehydrogenase in myocardium: 60.4 ± 1.6 relative units
[9]
  Activity of glutamatedehydrogenase in myocardium: 78.3 ± 1.7 relative units
[10]
  Activity of NAD-Ph-H2-dehydrogenase in myocardium: 85.9 ± 1.7 relative units
[11]; [13]
  Glycogen, heart: 2.6 ± 0.4 mg/g
  Glycogen, liver: 11.7 ± 2.4 mg/g
  Blood glucose: 78 ± 6 mg. %
[11]; [14]
  Glycogen, heart: 2.9 ± 0.2 mg/g
  Glycogen, liver: 18.2 ± 2.1 mg/g
  Blood glucose: 88 ± 2 mg. %
[12]
  Activity of NADH2-dehydrogenase in myocardium: 73.4 ± 2.0 relative units

From patent publication US4691046A, “Butanedioic acid mono [(2-dimethylamino] ethyl ester)succinate” (Institut Organicheskoi Khimii Ordena Lenina I Ordena …, priority 1986, dated 1987)
